Like-named read-outs stand apart in the source and are kept apart here.
Tests used:
ALK protein = target: T1, ALK protein (Homo sapiens, UniProt Q9UM73); assay: Western blot of ALK protein degradation in SR cells; type: cell-based
T1 construct: We studied the total ALK protein in the anaplastic large cell lymphoma cell line SR; host or cells: SR cells (human anaplastic large cell lymphoma); the other entry of the earlier key: NPM1 (P06748, Nucleophosmin)
Protocol: (§1) The ALK gene rearrangement positive cell line used was SR cells (NPM-ALK, human anaplastic large cell lymphoma cells). MDA-MB231 was a triple-negative breast cancer cell. Both SR cells and MDA-MB231 cells were purchased from ATCC. The 293T cells overexpressing EML4-ALK G1202R were the cells constructed and verified for correct expression by this laboratory.
Tumor cells were seeded in a 24-well plate containing 1 ml of RPMI1640 medium at 1.5-3×10^5 cells/well. The next day, the cells were treated with different concentrations of drugs. After 16 hours, the supernatant was removed and the cells were washed with PBS. The cells were placed on ice and the cells were treated with RIPA protein lysate containing Halt protease and phosphatase inhibitors. The lysate was centrifuged at 10000RPM at 4° C. for 10 minutes, and the supernatant was collected. The same amount of protein was added to the 4×SDS sample solution, denatured at 95° C. for 5 minutes and freezen to −20° C., or protein electrophoresis was directly performed. GenScript, a 4-20% gradient protein precast gel was used as the electrophoresis gel. The electrophoresis tank and related components were purchased from Bio-rad, and the electrophoresis conditions were equal pressure 120 v for 2 hours. PVDF membrane was used for the transfer membrane, and the transfer membrane system was placed on ice with an equal current of 400 mA for one hour. After transferring the membrane, it was sealed with TBST+5% milk powder for half an hour. For the specific steps of immunoblotting, refer to the antibody instructions of Cell Signaling Technology.
DC50 (the drug concentration corresponding to protein degradation to 50%) calculation: according to the gray value of the Western blotting band after the drug is processed, the relationship curve between the drug concentration and the gray value is fitted by Prism GraphPad software to calculate the drug concentration range corresponding half of the gray value.
The cells with different concentrations (0, 10, 50, 100, 500 nM) of Brigatinib were first treated in SR cells for 16 hours. Western blotting was used on cell lysate to detect the effect of Brigatinib on the content of ALK protein (FIG. 2).

lung cancer patients = conditions: cited from earlier work
[1] = system: SR cells (NPM-ALK, human anaplastic large cell lymphoma cells); assay: Proliferation inhibition (IC50) in SR cells, CCK8 (WST) reagent; type: cell-based; conditions: 72 h
Protocol: The ALK gene rearrangement positive cell line used was SR cells (NPM-ALK, human anaplastic large cell lymphoma cells). MDA-MB231 was a triple-negative breast cancer cell. Both SR cells and MDA-MB231 cells were purchased from ATCC.
The tumor cell line used was daily cultured in a 37° C. incubator containing 5% CO2. The medium was RPMI1640 supplemented with 10% FCS and Penicillin-Streptomycin.
(§2) The IC50 of the compound of the present disclosure was determined using Promega's Cell Titer Blue, Cell Titer GLO or commercially available WST reagents. The specific steps were as follows: the cells were seeded in a 96-well plate containing 100 microliters of RPMI medium containing serum at a number of 2000 cells/well. On the second day, the original drug and the compound of the present disclosure were serially diluted and added to the cells. After 72 hours of treatment with the compound of the present disclosure, the cell activity detection reagent was added to the culture medium for cell activity determination according to the instructions. The negative control was DMSO, and the positive control was the original drug, and the cells were treated in the same manner as the compound of the present disclosure. The growth inhibition of the compounds of the present disclosure on cells was plotted by Prism Graphpad software and the IC50 of the compounds of the present disclosure was counted from it.
We conducted dose-dependent experiments on the designed and synthesized compounds of the present disclosure in SR cells. […] The cells were treated with different concentrations of compounds (starting at 10 μM, 3 times dilution factor, 10 concentrations). After 72 hours, the cells were detected using CCK8 reagent (WST).

[2] = system: 293T cells overexpressing EML4-ALK G1202R; assay: Proliferation inhibition (IC50) in 293T cells overexpressing EML4-ALK G1202R; type: cell-based; conditions: Homo sapiens, HEK-293T; WST reagent, 72 hours; read-out: IC50 (half inhibitory concentration) in 293T cells overexpressing EML4-ALK G1202R
Protocol: as §2

[3] = system: triple-negative breast cancer MDA-MB-231 cell line; assay: Proliferation inhibition (IC50) in MDA-MB-231 cell line; type: cell-based; conditions: Homo sapiens, WST reagent, 72 hours, read-out: IC50 (half inhibitory concentration) in MDA-MB-231 cell line
Protocol: as §1, §2

[4] = SR cells, WST reagent, 72 hours, read-out: IC50 (half inhibitory concentration), Brigatinib series in lymphoma cell lines
[5] = read-out: DC50 (half degradation concentration), Alectinib series in lymphoma cell lines, 16 hours, concentration range at half of the gray value
[6] = read-out: IC50 (half inhibitory concentration), Alectinib series in lymphoma cell lines, SR cells, WST reagent, 72 hours
[7] = 16 hours, concentration range at half of the gray value, read-out: DC50 (half degradation concentration), Brigatinib series in lymphoma cell lines

T1 sequence (Q9UM73 with tags, fused parts or gaps): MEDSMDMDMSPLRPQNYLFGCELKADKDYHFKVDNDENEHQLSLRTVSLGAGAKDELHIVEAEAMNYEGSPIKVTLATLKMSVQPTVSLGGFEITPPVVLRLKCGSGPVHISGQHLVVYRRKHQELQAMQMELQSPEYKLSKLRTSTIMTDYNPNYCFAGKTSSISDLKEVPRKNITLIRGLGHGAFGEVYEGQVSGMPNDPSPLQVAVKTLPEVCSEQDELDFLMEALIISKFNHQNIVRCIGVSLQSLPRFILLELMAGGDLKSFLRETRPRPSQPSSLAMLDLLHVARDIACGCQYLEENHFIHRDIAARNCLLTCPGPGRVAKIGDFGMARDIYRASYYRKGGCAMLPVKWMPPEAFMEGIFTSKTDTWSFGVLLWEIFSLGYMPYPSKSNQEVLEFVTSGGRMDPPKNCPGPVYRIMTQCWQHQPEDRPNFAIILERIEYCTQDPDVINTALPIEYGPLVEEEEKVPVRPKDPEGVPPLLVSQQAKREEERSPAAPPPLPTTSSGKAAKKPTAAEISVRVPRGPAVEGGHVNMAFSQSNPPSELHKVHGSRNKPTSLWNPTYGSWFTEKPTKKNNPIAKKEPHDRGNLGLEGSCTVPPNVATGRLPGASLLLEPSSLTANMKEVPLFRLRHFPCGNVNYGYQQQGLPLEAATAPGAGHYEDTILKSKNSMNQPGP

In the case of `COc1cc(N2CCC(N3CCN(C)CC3)CC2)ccc1Nc1ncc(Cl)c(Nc2ccccc2P(C)(C)=O)n1` [Brigatinib, reference compound], the “degradation effect on ALK protein” value (ALK protein; 16 hours, concentrations up to 500 nM) is given as “no degradation effect”, the control rate (lung cancer patients) is given as 86% and the effective rate (lung cancer patients) is given as 55%. The IC50 [1, 4] was 6.9 nM, the IC50 [2] was 473 ± 129 nM and the IC50 [3] was 381 ± 41 nM.
With `COc1cc(N2CCC(N3CCN(CCCC#Cc4cccc5c4CN(C4CCC(=O)NC4=O)C5=O)CC3)CC2)ccc1Nc1ncc(Cl)c(Nc2ccccc2P(C)(C)=O)n1` (centres unmarked) [SIAIS262039, 3-(4-(5-(4-(1-(4-((5-chloro-4-((2-(dimethylphosphono)phenyl)amino)pyrimidin-2-yl)amino)-3-methoxyphenyl)piperidin-4-yl)piperazin-1-yl)pent-1-yn-1-yl)-1-oxoisoindolin-2-yl)piperidine-2,6-dione] the “concentration from which a degradation effect on ALK protein is shown” value (“concentration” below) (ALK protein) was “less than 0.005 nM”, the IC50 [1, 4] was ~1 nM and the IC50 [3] was 22.5 ± 2.26 nM.
With `CCc1cc2c(cc1N1CCC(N3CCN(CCCC#Cc4cccc5c4CN(C4CCC(=O)NC4=O)C5=O)CC3)CC1)C(C)(C)c1[nH]c3cc(C#N)ccc3c1C2=O` (centres unmarked) [SIAIS293001, 8-(4-(4-(5-(2-(2,6-dioxopiperidin-3-yl)-1-oxoisoindolin-4-yl)pent-4-yn-1-yl)piperazin-1-yl)piperidin-1-yl)-9-ethyl-6,6-dimethyl-11-oxo-6,11-dihydro-5H-benzo[b]carbazole-3-carbonitrile] the DC50 (ALK protein; [5]) was 0.05 to 0.5 nM and the IC50 [1, 6] was 2.7 nM.
With `CCc1cc2c(cc1N1CCC(N3CCN(C(=O)COc4cccc5c4C(=O)N(C4CCC(=O)NC4=O)C5=O)CC3)CC1)C(C)(C)c1[nH]c3cc(C#N)ccc3c1C2=O` (centres unmarked) [SIAIS293010, 8-(4-(4-(2-((2-(2,6-dioxopiperidin-3-yl)-1,3-dioxoisoindolin-4-yl)oxy)acetyl)piperazin-1-yl)piperidin-1-yl)-9-ethyl-6,6-dimethyl-11-oxo-6,11-dihydro-5H-benzo[b]carbazole-3-carbonitrile] the “concentration” value (ALK protein) was 0.5 nM, the DC50 (ALK protein; [5]) was 0.05 to 0.5 nM and the IC50 [1, 6] was 2 nM.
`COc1cc(N2CCC(N3CCN(CCCCCCC#Cc4cccc5c4CN(C4CCC(=O)NC4=O)C5=O)CC3)CC2)ccc1Nc1ncc(Cl)c(Nc2ccccc2P(C)(C)=O)n1` (centres unmarked) [SIAIS293017, 3-(4-(8-(4-(1-(4-((5-chloro-4-((2-(dimethylphosphono)phenyl)amino)pyrimidin-2-yl)amino)-3-methoxyphenyl)piperidin-4-yl)piperazin-1-yl)oct-1-yn-1-yl)-1-oxoisoindolin-2-yl)piperidine-2,6-dione] showed a DC50 (ALK protein; [7]) of 0.5 to 5 nM and an IC50 [1, 4] of 1.5 nM.
In the case of `COc1cc(N2CCC(N3CCN(CCCCCCCC#Cc4cccc5c4CN(C4CCC(=O)NC4=O)C5=O)CC3)CC2)ccc1Nc1ncc(Cl)c(Nc2ccccc2P(C)(C)=O)n1` (centres unmarked) [SIAIS293018, 3-(4-(9-(4-(1-(4-((5-chloro-4-((2-(dimethylphosphono)phenyl)amino)pyrimidin-2-yl)amino)-3-methoxyphenyl)piperidin-4-yl)piperazin-1-yl)non-1-yn-1-yl)-1-oxoisoindolin-2-yl)piperidine-2,6-dione], the “concentration” value (ALK protein) is reported as 5 nM, the DC50 (ALK protein; [7]) is reported as 0.05 to 0.5 nM and the IC50 [1, 4] is reported as 2 nM.
Work on `COc1cc(N2CCC(NCCCC#Cc3cccc4c3CN(C3CCC(=O)NC3=O)C4=O)CC2)ccc1Nc1ncc(Cl)c(Nc2ccccc2P(C)(C)=O)n1` (centres unmarked) [SIAIS293093, 3-(4-(5-((1-(4-((5-chloro-4-((2-(dimethylphosphono)phenyl)amino)pyrimidin-2-yl)amino)-3-methoxyphenyl)piperidin-4-yl)amino)pent-1-yn-1-yl)-1-oxoisoindolin-2-yl)piperidine-2,6-dione] yielded an IC50 [1, 4] of 1.3 nM and an IC50 [3] of 191 ± 106 nM.
Work on `COc1cc(N2CCC(N3CCN(Cc4ccc(CSc5cccc6c5CN(C5CCC(=O)NC5=O)C6=O)cc4)CC3)CC2)ccc1Nc1ncc(Cl)c(Nc2ccccc2P(C)(C)=O)n1` (centres unmarked) [SIAIS293189, 3-(4-((4-((4-(1-(4-((5-chloro-4-((2-(dimethylphosphono)phenyl)amino)pyrimidin-2-yl)amino)-3-methoxyphenyl)piperidin-4-yl)piperazin-1-yl)methyl)benzyl)thio)-1-oxoisoindolin-2-yl)piperidine-2,6-dione] yielded a DC50 (ALK protein; [7]) of 0.05 to 0.5 nM, an IC50 [1, 4] of 0.1 ± 0.02 nM and an IC50 [2] of 99.5 ± 8.62 nM.
In the case of `COc1cc(N2CCC(N3CCN(CCCCCc4cccc5c4CN(C4CCC(=O)NC4=O)C5=O)CC3)CC2)ccc1Nc1ncc(Cl)c(Nc2ccccc2P(C)(C)=O)n1` (centres unmarked) [SIAIS352008, 3-(4-(5-(4-(1-(4-((5-chloro-4-((2-(dimethylphosphono)phenyl)amino)pyrimidin-2-yl)amino)-3-methoxyphenyl)piperidin-4-yl)piperazin-1-yl)pentyl)-1-oxoisoindolin-2-yl)piperidine-2,6-dione], the DC50 (ALK protein; [7]) is reported as 0.05 to 0.5 nM, the IC50 [1, 4] is reported as 2.1 ± 1.2 nM and the IC50 [3] is reported as 4.5 ± 0.5 nM.
For `COc1cc(N2CCC(N3CCN(CCSc4cccc5c4CN(C4CCC(=O)NC4=O)C5=O)CC3)CC2)ccc1Nc1ncc(Cl)c(Nc2ccccc2P(C)(C)=O)n1` (centres unmarked) [SIAIS352011, 3-(4-((2-(4-(1-(4-((5-chloro-4-((2-(dimethylphosphono)phenyl)amino)pyrimidin-2-yl)amino)-3-methoxyphenyl)piperidin-4-yl)piperazin-1-yl)ethyl)thio)-1-oxoisoindolin-2-yl)piperidine-2,6-dione], the DC50 (ALK protein; [7]) was 0.5 to 5 nM, the IC50 [1, 4] was 1.2 ± 0.3 nM and the IC50 [3] was 4.9 ± 1.04 nM.
With `COc1cc(N2CCC(N3CCN(CCCCc4cccc5c4CN(C4CCC(=O)NC4=O)C5=O)CC3)CC2)ccc1Nc1ncc(Cl)c(Nc2ccccc2P(C)(C)=O)n1` (centres unmarked) [SIAIS352059, 3-(4-(4-(4-(1-(4-((5-chloro-4-((2-(dimethylphosphono)phenyl)amino)pyrimidin-2-yl)amino)-3-methoxyphenyl)piperidin-4-yl)piperazin-1-yl)butyl)-1-oxoisoindolin-2-yl)piperidine-2,6-dione] the IC50 [1, 4] was 1.1 ± 0.3 nM and the IC50 [3] was 75 ± 58 nM.

From patent publication US12390532B2, “ALK protein regulator and anti-tumor application thereof” (SHANGHAITECH UNIVERSITY, priority 2019, dated 2025)
